The values that follow are results of earlier work, collected in US5292505A, “Sulphated vinyl polymer in composition for treating retroviral infections” (Stichting Rega VZW, priority 1989, dated 1994).

Series [1] concerns Molt-4 cells co-cultured with HIV-1-infected HUT-78 cells. The note with it: statement without own test.
In the next series the test system is AIDS. As to conditions: AIDS patients, Fischl et al.

For `Cc1cn([C@H]2C[C@H](N=[N+]=[N-])[C@@H](CO)O2)c(=O)[nH]c1=O` [azidothymidine, 3'-azido-2',3'-dideoxythymidine], the “inhibition of giant cell formation” value in series [1] was “does not show such effect”. Besides, in the series with AIDS, the clinical effectiveness entry was “clinically effective”.
